In patent publication US11542316B2, “S-Arrestin peptides and therapeutic uses thereof” (APITOPE INTERNATIONAL NV, priority 2017, dated 2023):
Ends that are not written are not given here.

What was measured:
LN and spleen cells = assay: Immunogenicity of HIP-115 in DR3 mice (IFN-γ ELISA on LN and spleen cultures); assay type: in vivo; details: mice immunized with 50 μg HIP-115/CFA; LN and spleens cultured with 10 and 25 μg/ml HIP-115, 72 h
Experimental: FIG. 1: Immunogenicity of HIP-115 in DR3 mice. Mice were immunized with 50 μg HIP-115/CFA or PBS/CFA in the tail base. After 10 days, LN and spleens were harvested and cultured with 10 μg/ml and 25 μg/ml of HIP-115. Supernatants were collected after 72 h. Cell activation was measured by IFN-γ ELISA. (A) Immunogenicity in LN. (B) Immunogenicity in spleens. CFA, Complete Freund's Adjuvant; LN, lymph nodes.
Animal experiments were done to verify the predictions. Mice that were immunized with SAg (or fragments of it) were tested for their capacity to elicit an immune response when probed with the whole protein or parts of it. […] This response can be observed in secondary lymphoid organs, namely spleen (FIG. 1A) and lymph nodes (LN; FIG. 1B).

[1] = system: SAg-specific hybridoma cells / T cell line with VAVY APC; assay: Antigen Processing Independent Presentation System (APIPS) assay, fresh or fixed VAVY APC; assay type: cell-based, DR3 mice; details: DR3 hybridoma clone (IL-2, 48 h) or T cell line (IFN-γ, 24 h)
Experimental: (§1) FIG. 2: identification of apitopes within HIP-115. (A) DR3 mice were immunized with SAg and hybridomas were generated. 5×10^4 SAg-specific hybridoma cells were cultured with 5×10^4 fresh or fixed commercial APC (VAVY) cells. T cell proliferation was measured by IL-2 ELISA on supernatants collected after 48 h. The graph represents the mean of duplicate measurements±SEM. (B) DR3 mice were immunized with HIP-115 and a T cell line was established. Ten days after immunization the LN and spleens were harvested and cultured with different concentrations of peptide (0.1-1-2.5 and 5 μg/ml); 2×10^6 cells/ml APC+1×10^6 cells/ml CD4 T cells per well. At day 7 the cells were re-stimulated with the same concentrations of peptide. On day 14 an APIPS test was done using commercial APC (VAVY). After 24 h, antigen-induced T cell activation was measured by IFN-γ ELISA and shown as IFN-γ concentration (pg/ml). The graph represents the mean of duplicate measurements±SEM. LN, lymph nodes; APC, Antigen presenting cell; APIPS, Antigen Processing Independent Presentation System.
as §1, with “3:” for “2:”, “HIP-241125.” for “HIP-115.”, “HIP-241125+HIP-24DG” for “HIP-115”
(§2) FIG. 5: Identification of apitopes within HIP-17GN. DR3 mice were immunized with HIP-17GN and a T cell line was established. Ten days after immunization the LN and spleens were harvested and cultured with different concentrations of peptide (0.1-1-2.5 and 5 μg/ml); 2×10^6 cells/ml APC+1×10^6 cells/ml CD4 T cells per well. At day 7 the cells were re-stimulated with the same concentrations of peptide. On day 14 an APIPS test was done using commercial APC (VAVY). After 24 h, antigen-induced T cell activation was measured by IFN-γ ELISA and shown as OD values. The graph represents the mean of triplicate measurements±SEM. LN, lymph nodes; APC, Antigen presenting cell; APIPS, Antigen Processing Independent Presentation System.
as §2, with “6:” for “5:”, “HIP-12AK.” for “HIP-17GN.”, “HIP-12AK” for “HIP-17GN”, “IFN-γ concentration (pg/ml).” for “OD values.”, “duplicate” for “triplicate”
Antigen-specific clones or TCL were tested for their reactivity to the peptides, presented by fixed or not fixed (fresh) cells (VAVY or MGAR) (=APCs). 5×10^4 cells from the individual clones were cultured with 10 μg/ml peptide and 5×10^4 fixed or fresh APCs. […]

[2] = biological target: T1, MHC II molecules present on dendritic cells (DC) (Homo sapiens, UniProt P01903+P01911); assay: In vivo presentation experiment, DR2tg mice; details: 100 μg peptide s.c., CD11c+ cells harvested after 2 hours, co-culture 48 hours
T1 construct: from tissue; host or cells: CD11c+ dendritic cells from spleens of DR2tg mice (DRA*0101 and DRB1*1501 cDNAs under a mouse MHCII promoter, no mouse MHC class II)
Text: FIG. 14: In vivo presentation protocol. Mice are immunized with peptide/CFA and a T cell line is established. For this, ten days after immunization the LN and spleens are harvested and cultured with different concentrations of peptide; 2×10^6 cells/ml APC+1×10^6 cells/ml CD4^+ cells per well. At day 7 the cells are re-stimulated with fresh APC and the same concentrations of peptide. After 14 to 21 days, CD4^+ cells are isolated from these cultures by magnetic bead isolation. These CD4^+ cells are co-cultured with CD11c^+ (dendritic) cells isolated by magnetic bead isolation from spleens of mice s.c. injected with peptide 2 hours before. Control mice receive a s.c. injection of PBS. After 48 hours, supernatant is collected and cytokine response (IFN-γ) is measured. […]
FIG. 17: In vivo presentation of HIP-9FL nested peptides in DR2 mice. […] After 48 hours, supernatant was collected and IFN-γ production was measured by ELISA. […]
DR3tg or DR2tg mice were injected with 100 μg of peptide in 100 μl PBS subcutaneously (s.c.) in the flank. […] After 48 hours, supernatant of these co-cultures was collected and CD4^+ T cell activation was analysed by IFN-γ ELISA (R&D Systems, Abingdon, UK). In a parallel experiment, CD4^+ T cell responses towards peptide added in vitro were assessed to make sure the T cells recognize the peptides presented by the CD11c^+ cells.

Solubility of peptides = assay type: physicochemical
Experimental: The solubility of potential apitopes from S—Ag are determined by visual observations and turbidity measurement by UV spectrophotometry at 280 nm. The solubility of the peptides can be modified by adding amino acids ‘GKK’ or ‘KKK’ (or similar) on both the C- and N-terminus of the sequence. Modifications that may be suitable are described in WO2014/072958 (which is hereby incorporated by reference).
For some of these peptides, the parental peptides were insoluble, and solubility is a critical parameter for them to work as a tolerogenic peptide. Several end-terminal modifications can be used and as example used here they were improved by addition of 3 lysines before and after the original peptide sequence (labelled as ‘-KKK’ versions).

T1 sequence (P01903 26-254): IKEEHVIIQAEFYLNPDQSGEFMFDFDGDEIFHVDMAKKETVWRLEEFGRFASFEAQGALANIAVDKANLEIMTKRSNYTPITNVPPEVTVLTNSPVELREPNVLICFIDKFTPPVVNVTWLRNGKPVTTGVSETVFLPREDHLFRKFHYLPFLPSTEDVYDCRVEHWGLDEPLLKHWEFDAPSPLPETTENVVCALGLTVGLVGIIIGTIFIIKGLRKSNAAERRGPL
T1 sequence (P01911 30-266): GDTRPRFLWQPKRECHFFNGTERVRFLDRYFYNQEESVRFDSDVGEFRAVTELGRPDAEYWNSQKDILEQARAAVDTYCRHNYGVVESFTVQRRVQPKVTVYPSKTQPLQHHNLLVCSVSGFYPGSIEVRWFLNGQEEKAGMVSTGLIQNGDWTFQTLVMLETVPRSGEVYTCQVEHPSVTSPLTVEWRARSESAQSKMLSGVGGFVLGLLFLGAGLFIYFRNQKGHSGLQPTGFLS

| Substance | immune response against HIP-115 (IFN-γ ELISA) (LN and spleen cells) | behaves as apitope (response to peptide presented by fresh or fixed APC) [1] | picked up and presented by MHC II on dendritic cells to peptide-specific T cells (IFN-γ production) [2] | solubility (Solubility of peptides) |
| --- | --- | --- | --- | --- |
| MAASGKTSKSEPNHVIFKKISRDKSVTIYLGNRDYIDHVSQV-NH2 [HIP-115] | develop an immune response against it | behave as apitopes |  |  |
| AFVEQVANVVL-NH2 [HIP-9K1, AFVEQVANVVL] |  |  | not able to cause this activation | insoluble |
